Experimental data from patent publication US9980927B2, “Use of tapentadol for inhibiting and/or treating depression and anxiety” (Gruenenthal GmbH, priority 2011, dated 2018).

Test system: patients with inadequately managed, severe chronic low back pain with or without a neuropathic pain component
Experiment: Hospital Anxiety and Depression Scale (HADS) depression score; open-label phase IIIb trial, tapentadol prolonged release 50-250 mg bid for up to 12 weeks
Assay type: in vivo, human patients
Details: for HADS depression score, course: Baseline to Week 12
Procedure: As used herein, the “depression score” is a value determining the degree of the depression. The scale of depression scores covers the range from 0 to 21, wherein the degree of the depression is high in case of high values and low in case of low values. In a group of tested subjects, typically the mean or mediate values of depression scores are determined. The mean value is the sum of all depression scores divided by the number of subjects. The mediate value is the middle depression score in the set of determined scores. Preferably, the “depression score” is defined as in the experimental section.
A subgroup suffering from neuropathic pain due to lumbar radiculopathy was also investigated.
This was a multicenter, multinational, open-label, effectiveness phase IIIb trial to evaluate effectiveness and safety of tapentadol prolonged release treatment in patients with inadequately managed, severe chronic low back pain with or without a neuropathic pain component. Patients taking WHO Step II analgesics discontinued those analgesics before starting study medication; patients taking Step I analgesics and/or centrally acting co-analgesics continued on the same dose. […] All patients received tapentadol prolonged release (50-250 mg bid) for up to 12 weeks (5-week titration period and a 7-week maintenance period). Tapentadol immediate release (IR) 50 mg (twice a day, hours apart) was permitted (combined total daily dose of tapentadol prolonged release and tapentadol IR, 500 mg/day). The primary efficacy endpoint was the change from Baseline to Week 6 (when tapentadol prolonged release doses were stable) in average pain intensity on the 11-point NRS-3 using the last observation carried forward (LOCF) for imputing missing scores. The painDETECT questionnaire was used to evaluate the likelihood of a neuropathic pain component of low back pain; patients were classified as painDETECT “negative,” “unclear,” or “positive.” The population of patients classified as painDETECT negative was limited to approximately 30% of the total population.
In the painDETECT positive trial population the “diagnosis of lumbar radiculopathy” was evaluated which was defined per study protocol according following criteria: • typical dermatomal pain (radiating beyond the knee towards the foot, pain evoked by stretching within distribution of the ischiadic/femoral nerve) • signs of root dysfunction: • such as sensory impairment, motor symptoms from compression of lumbar nerve root (L4, L5, S1). • and/or absent or diminished quadriceps femoris or triceps surae reflexes. • and/or quantitative sensory testing (QST) deficit and pain distribution present in the same dermatomal area.
All subjects completed Short Form-36 (SF-36) and EuroQol-5 Dimension (EQ-5D) questionnaires and the Hospital Anxiety and Depression Scale (HADS). The Patient Global Impression of Change (PGIC) and Clinical global impression of change (CGIC) were also used as secondary endpoints. For both tests, patients completed the statement, “since I began trial treatment, I would rate my overall condition as,” using 7 possible responses (“very much worse” to “very much improved”). Adverse events were recorded throughout the trial.
In the following • (i) N is the number of subjects of the specified diagnosis group, • (ii) n is the number of subjects with data available, • (iii) “Mean” is the mean score of the subjects, i.e. the sum of all scores is divided by the number of subjects, • (iv) SD is the standard deviation, • (v) “Median” is the median score of the subjects, i.e. the middle score in the set of scores, • (vi) “Range” is the range of scores of the subjects, i.e. the range defined by the lowest and the highest score of the set of scores. First, the depression scores are presented. The total number of subjects in the clinical study: N=175

[1] = Visit 1, defined neuropathic pain N=85
[2] = Visit 1, positive diagnosis of lumbar radiculopathy-neuropathic pain subset N=44
[3] = Visit 1, presumed neuropathic pain component N=41
[4] = Visit 1, presumed or defined neuropathic pain component N=126
[5] = Visit 1, subjects with nociceptive pain N=49
[6] = Visit 5, defined neuropathic pain N=85
[7] = Visit 5, positive diagnosis of lumbar radiculopathy-neuropathic pain subset N=44
[8] = Visit 5, presumed neuropathic pain component N=41
[9] = Visit 5, presumed or defined neuropathic pain component N=126
[10] = Visit 5, subjects with nociceptive pain N=49
[11] = Visit 6, defined neuropathic pain N=85
[12] = Visit 6, positive diagnosis of lumbar radiculopathy-neuropathic pain subset N=44
[13] = Visit 6, presumed neuropathic pain component N=41
[14] = Visit 6, presumed or defined neuropathic
[15] = Visit 6, presumed or defined neuropathic pain component N=126
[16] = Visit 6, subjects with nociceptive pain N=49
[17] = Visit 7, defined neuropathic pain N=85
[18] = Visit 7, positive diagnosis of lumbar radiculopathy-neuropathic pain subset N=44
[19] = Visit 7, presumed neuropathic pain component N=41
[20] = Visit 7, presumed or defined neuropathic pain component N=126
[21] = Visit 7, subjects with nociceptive pain N=49
[22] = Visit 8, defined neuropathic pain N=85

**Q.** How did the “HADS depression score, course” value (painDETECT negative) turn out when `CC[C@@H](c1cccc(O)c1)[C@@H](C)CN(C)C` [tapentadol, (−)-(1R,2R)-3-(3-dimethylamino-1-ethyl-2-methyl-propyl)-phenol] was run?
**A.** The value was “not significantly”.

**Q.** What about the “HADS depression score, course” value (painDETECT unclear/positive, P<0.0001 at Visit 12) of the same compound?
**A.** The value was “improved steadily”.

**Q.** What about the “HADS depression score, course” value (positive diagnosis of lumbar radiculopathy-neuropathic pain subset, 0.0023 at Visit 12) of the same compound?
**A.** The value was “improved steadily”.

**Q.** And the “Depression score Mean (SD)” value [1]?
**A.** The value was 8.3 (4.51).

**Q.** And the “Depression score Median” value [1]?
**A.** Its value is 8.0.

**Q.** And the “Depression score Mean (SD)” value [2]?
**A.** The value was 7.5 (3.69).

**Q.** And the “Depression score Median” value [2]?
**A.** The value was 7.5.

**Q.** And the “Depression score Mean (SD)” value [3]?
**A.** Its value is 8.8 (4.59).

**Q.** What about the “Depression score Median” value [3] of the same compound?
**A.** Its value is 8.5.

**Q.** And the “Depression score Mean (SD)” value [4]?
**A.** Its value is 8.5 (4.52).

**Q.** And the “Depression score Median” value [4]?
**A.** The value was 8.0.

**Q.** What about the “Depression score Mean (SD)” value [5] of the same compound?
**A.** The value was 6.1 (3.90).

**Q.** What about the “Depression score Median” value [5] of the same compound?
**A.** The value was 5.0.

**Q.** What about the “Depression score Mean (SD)” value (Visit 1, total subjects N=175) of the same compound?
**A.** Its value is 7.8 (4.47).

**Q.** What about the “Depression score Median” value (Visit 1, total subjects N=175) of the same compound?
**A.** The value was 7.0.

**Q.** What about the “Depression score Mean (SD)” value [6] of the same compound?
**A.** The value was 7.3 (4.29).

**Q.** What about the “Depression score Median” value [6] of the same compound?
**A.** The value was 7.0.

**Q.** And the “Depression score Mean (SD)” value [7]?
**A.** Its value is 6.7 (3.77).

**Q.** And the “Depression score Median” value [7]?
**A.** The value was 6.0.

**Q.** And the “Depression score Mean (SD)” value [8]?
**A.** Its value is 7.5 (4.59).

**Q.** What about the “Depression score Median” value [8] of the same compound?
**A.** The value was 7.0.

**Q.** What about the “Depression score Mean (SD)” value [9] of the same compound?
**A.** Its value is 7.4 (4.37).

**Q.** What about the “Depression score Median” value [9] of the same compound?
**A.** Its value is 7.0.

**Q.** What about the “Depression score Mean (SD)” value [10] of the same compound?
**A.** Its value is 5.6 (3.68).

**Q.** What about the “Depression score Median” value [10] of the same compound?
**A.** The value was 5.0.

**Q.** And the “Depression score Mean (SD)” value (Visit 5, total subjects N=175)?
**A.** Its value is 6.9 (4.26).

**Q.** And the “Depression score Median” value (Visit 5, total subjects N=175)?
**A.** Its value is 6.0.

**Q.** And the “Depression score change from baseline Mean (SD)” value (“Depression score change … (SD)” below) (Visit 6)?
**A.** Its value is −0.4 (3.55).

**Q.** What about the “Depression score change from baseline Median” value (Visit 6) of the same compound?
**A.** The value was −0.0.

**Q.** And the “Depression score change … (SD)” value (Visit 6, defined neuropathic)?
**A.** Its value is −1.7 (3.43).

**Q.** And the “Depression score change from baseline Median” value (Visit 6, defined neuropathic)?
**A.** The value was −2.0.

**Q.** What about the “Depression score Mean (SD)” value [11] of the same compound?
**A.** The value was 6.8 (4.41).

**Q.** What about the “Depression score Median” value [11] of the same compound?
**A.** Its value is 6.0.

**Q.** And the “Depression score change … (SD)” value (Visit 6, lumbar radiculopathy)?
**A.** The value was −1.7 (3.23).

**Q.** What about the “Depression score change from baseline Median” value (Visit 6, lumbar radiculopathy) of the same compound?
**A.** The value was −1.0.

**Q.** And the “Depression score change … (SD)” value (Visit 6, nociceptive)?
**A.** Its value is −1.0 (3.15).

**Q.** What about the “Depression score change from baseline Median” value (Visit 6, nociceptive) of the same compound?
**A.** Its value is −1.0.

**Q.** What about the “Depression score Mean (SD)” value [12] of the same compound?
**A.** The value was 6.3 (3.67).

**Q.** What about the “Depression score Median” value [12] of the same compound?
**A.** The value was 6.0.

**Q.** And the “Depression score Mean (SD)” value [13]?
**A.** The value was 7.5 (4.60).

**Q.** And the “Depression score Median” value [13]?
**A.** The value was 7.5.

**Q.** And the “Depression score change … (SD)” value [14]?
**A.** The value was −1.3 (3.50).

**Q.** And the “Depression score change from baseline Median” value [14]?
**A.** The value was −1.0.

**Q.** What about the “Depression score Mean (SD)” value [15] of the same compound?
**A.** Its value is 7.1 (4.46).

**Q.** And the “Depression score Median” value [15]?
**A.** Its value is 7.0.

**Q.** And the “Depression score Mean (SD)” value [16]?
**A.** Its value is 5.3 (4.03).

**Q.** What about the “Depression score Median” value [16] of the same compound?
**A.** Its value is 4.0.

**Q.** What about the “Depression score change … (SD)” value (Visit 6, total) of the same compound?
**A.** Its value is −1.2 (3.40).

**Q.** What about the “Depression score change from baseline Median” value (Visit 6, total) of the same compound?
**A.** The value was −1.0.

**Q.** What about the “Depression score Mean (SD)” value (Visit 6, total subjects N=175) of the same compound?
**A.** The value was 6.6 (4.41).

**Q.** And the “Depression score Median” value (Visit 6, total subjects N=175)?
**A.** The value was 6.0.

**Q.** What about the “Depression score Mean (SD)” value [17] of the same compound?
**A.** Its value is 6.2 (4.56).

**Q.** What about the “Depression score Median” value [17] of the same compound?
**A.** Its value is 6.0.

**Q.** And the “Depression score Mean (SD)” value [18]?
**A.** Its value is 5.4 (3.85).

**Q.** And the “Depression score Median” value [18]?
**A.** Its value is 5.0.

**Q.** And the “Depression score Mean (SD)” value [19]?
**A.** Its value is 7.0 (4.71).

**Q.** What about the “Depression score Median” value [19] of the same compound?
**A.** Its value is 6.5.

**Q.** What about the “Depression score Mean (SD)” value [20] of the same compound?
**A.** Its value is 6.5 (4.61).

**Q.** What about the “Depression score Median” value [20] of the same compound?
**A.** The value was 6.0.

**Q.** What about the “Depression score Mean (SD)” value [21] of the same compound?
**A.** Its value is 5.0 (3.63).

**Q.** And the “Depression score Median” value [21]?
**A.** The value was 4.0.

**Q.** What about the “Depression score Mean (SD)” value (Visit 7, total subjects N=175) of the same compound?
**A.** Its value is 6.1 (4.40).

**Q.** What about the “Depression score Median” value (Visit 7, total subjects N=175) of the same compound?
**A.** Its value is 6.0.

**Q.** What about the “Depression score change … (SD)” value (Visit 8) of the same compound?
**A.** The value was −1.0 (3.13).

**Q.** What about the “Depression score change from baseline Median” value (Visit 8) of the same compound?
**A.** Its value is −1.0.

**Q.** And the “Depression score change … (SD)” value (Visit 8, defined neuropathic)?
**A.** The value was −2.3 (3.33).

**Q.** And the “Depression score change from baseline Median” value (Visit 8, defined neuropathic)?
**A.** The value was −1.5.

**Q.** What about the “Depression score Mean (SD)” value [22] of the same compound?
**A.** Its value is 6.4 (4.28).

**Q.** What about the “Depression score Median” value [22] of the same compound?
**A.** Its value is 6.0.

**Q.** What about the “Depression score change … (SD)” value (Visit 8, lumbar radiculopathy) of the same compound?
**A.** The value was −2.1 (3.54).

**Q.** What about the “Depression score change from baseline Median” value (Visit 8, lumbar radiculopathy) of the same compound?
**A.** Its value is −1.0.

**Q.** And the “Depression score change … (SD)” value (Visit 8, nociceptive)?
**A.** The value was −0.8 (2.31).

**Q.** What about the “Depression score change from baseline Median” value (Visit 8, nociceptive) of the same compound?
**A.** Its value is −1.0.

**Q.** And the “Depression score Mean (SD)” value (Visit 8, positive diagnosis of lumbar radiculopathy-neuropathic pain subset N=44)?
**A.** The value was 5.8 (3.71).
